Among the data in PubChem BioAssay AID1845216 (Molecular Pharmacology Branch, DTP, NCI, 2023) are IC50 and viability, T/C values, retold here.

Structures are written as SMILES. pIC50: −log10 of the molar value.

This assay deals with SW 982 tumor spheroid viability. Nature of the assay: Anticancer human tumor SW 982 cell line growth inhibition.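 As to all read-outs here: spheroids exposed to compound for 7 days before readout.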 The following applies: spheroids with HUVEC and MSC; for viability, T/C: stronger effect = lower value. An excerpt:
Multicellular complex tumor spheroid response to DNA repair inhibitors in combination with DNA-damaging drugs
This study explores the anticancer activities of DNA-damaging drugs and inhibitors of DNA damage repair, both as single agents and in combinations. Complex tumor spheroids comprised of malignant cells, endothelial cells and mesenchymal stem cells served as an in vitro model for human solid tumors. This model system incorporates physiologically relevant features and patient-derived or established malignant cell lines with clinically relevant genetic alterations from many tumor types. Twenty-six patient-derived or established malignant cell lines were evaluated representing sarcoma, melanoma, small cell lung cancer (SCLC), non-small cell lung cancer (NSCLC), as well as bladder, ovarian and pancreatic cancers. The concentration ranges selected for each drug and investigational agent were based upon clinically achievable concentrations if the clinical Cmax of the agent was known.
Compounds. The drugs and compounds olaparib (NSC753686), talazoparib (NSC767125), berzosertib (NSC777718), elimusertib (NSC800525), nedisertib (NSC802822), VX-984 (NSC792969), AZD-1390 (NSC803789), temozolomide (NSC362856), topotecan (NSC609699), trabectedin (NSC813783), staurosporine (NSC755774), and gemcitabine (NSC613327) were obtained from the National Cancer Institute (NCI) Developmental Therapeutics Program Chemical Repository. The FDA-approved anticancer drug set is available from the Developmental Therapeutics Program at https://dtp.cancer.gov/organization/dscb/obtaining/available_plates.htm. […] The stock solutions were prepared in dimethyl sulfoxide (DMSO, Sigma-Aldrich, St. Louis, MO, cat. D2650) at 400-fold the tested concentration and stored at -70 degrees C. Prior to their use, the stock solutions were diluted in fresh medium and the final DMSO concentration in the assay was 0.25% (v/v). All drugs and investigational agents were tested over a range starting from a high concentration at or near the clinical Cmax and decreasing in half-log increments. If the clinical Cmax for an agent had not been determined, the highest concentration tested was 10 microM.
Cell Lines. The patient-derived cancer cell (PDC) lines: 156681-154-R-J1-PDC, 283228-195-R-J1-PDC, 287954-098-R-J1-PDC, 292921-168-R-J2-PDC, 349418-098-R-PDC, 425362-245-T-J1-PDC, 556581-035-R-J1-PDC, and BL0293-F563-PDC were received from the NCI Patient-Derived Models Repository (PDMR, https://pdmr.cancer.gov). The established cell lines HS-SY-2 (RRID:CVCL_8719), MPNST, and SYO-1 (RRID:CVCL_7146) were obtained from the Sloan Kettering Institute. The alveolar soft parts sarcoma cell line ASPS-1 (RRID:CVCL_S738) was established at the NCI and grown from internal seed stocks. The following established cell lines were purchased from the American Type Culture Collection (ATCC, Manassas, VA): G-401 (ATCC, cat. CRL-1441, RRID:CVCL_0270), SW982 (ATCC, cat. HTB-93, RRID:CVCL_1734), VA-ES-BJ (ATCC, cat. CRL-2138, RRID:CVCL_1785), NCI-H719 (ATCC, cat. CRL-5837, RRID:CVCL_1582), NCI-H196 (ATCC, cat. CRL-5823, RRID:CVCL_1509), NCI-H841 (ATCC, cat. CRL-5845, RRID:CVCL_1595), NCI-H1618 (ATCC, cat. CRL-5879, RRID:CVCL_1480), NCI-H1876 (ATCC, cat. CRL-5902, RRID:CVCL_1503), DMS 114 (ATCC, cat. CRL-2066; RRID:CVCL_1174), NCI-H211 (ATCC, cat. CRL-5824; RRID:CVCL_1529), and SW 1271 (ATCC, cat. CRL-2177, RRID:CVCL_1716). The small cell lung cancer cell line COR-L88 was purchased from Sigma-Aldrich (cat. 92031917-1VL, RRID:CVCL_1141). The non-small cell lung cancer cell lines NCI-H226 (RRID:CVCL_1544) and NCI-H322M (RRID:CVCL_1557) were established at the NCI and grown from internal seed stocks. Pooled donor human umbilical vein endothelial cells (HUVEC, Lonza, cat. CC-2519) and human mesenchymal stem cells (hMSC, Lonza, cat. PT-2501) were purchased from Lonza (Walkersville, MD).
Cell Culture. All cells were maintained in an incubator at 37 degrees C and 5% CO2 with 95% humidity. […]

Turning to `[2H]c1nc(C)nc([2H])c1-c1cc(NC[C@@H](C)c2cccc3c(C(=O)NC)ccnc23)ncn1` + Cn1nnc2c(C(N)=O)ncn2c1=O, the pIC50 (in general, the negative decadic logarithm of the IC50, by convention in mol/L) is below 5.00 (curve of first compound, second compound 1 µM); below 5.00 (curve of first compound, second compound 3.16 µM); below 5.00 (curve of first compound, second compound 10 µM); below 5.00 (curve of first compound, second compound 31.6 µM); below 5.00 (curve of first compound, second compound 100 µM). Further, the viability, T/C (commonly the ratio of treated to control) (second compound 1 µM, first compound 0.0316 µM) was 100%; the viability, T/C (second compound 1 µM, first compound 0.1 µM) is 102%; the viability, T/C (second compound 1 µM, first compound 0.316 µM) is 92.6%; the viability, T/C (second compound 1 µM, first compound 1 µM) was 103%; the viability, T/C (second compound 1 µM, first compound 3.16 µM) is 106%; the viability, T/C (second compound 1 µM, first compound 10 µM) is 82.3%. Further, the viability, T/C is 92.6% (second compound 3.16 µM, first compound 0.0316 µM); 86.4% (second compound 3.16 µM, first compound 0.1 µM); 96% (second compound 3.16 µM, first compound 0.316 µM); 86.8% (second compound 3.16 µM, first compound 1 µM); 63.9% (second compound 3.16 µM, first compound 3.16 µM); 55.1% (second compound 3.16 µM, first compound 10 µM). Also, the viability, T/C reads like this: (second compound 10 µM, first compound 0.0316 µM) 83.8%; (second compound 10 µM, first compound 0.1 µM) 76%; (second compound 10 µM, first compound 0.316 µM) 78.5%; (second compound 10 µM, first compound 1 µM) 80.7%; (second compound 10 µM, first compound 3.16 µM) 71.7%; (second compound 10 µM, first compound 10 µM) 59.8%. Moreover, the viability, T/C runs as follows: (second compound 31.6 µM, first compound 0.0316 µM) 69.5%; (second compound 31.6 µM, first compound 0.1 µM) 76.2%; (second compound 31.6 µM, first compound 0.316 µM) 76.8%; (second compound 31.6 µM, first compound 1 µM) 72.5%; (second compound 31.6 µM, first compound 3.16 µM) 76.5%; (second compound 31.6 µM, first compound 10 µM) 71.2%. Also, the viability, T/C by setting is: (second compound 100 µM, first compound 0.0316 µM) 63.5%; (second compound 100 µM, first compound 0.1 µM) 63.4%; (second compound 100 µM, first compound 0.316 µM) 58%; (second compound 100 µM, first compound 1 µM) 60.9%; (second compound 100 µM, first compound 3.16 µM) 56.9%; (second compound 100 µM, first compound 10 µM) 60.7%.
For `Cn1nnc2c(C(N)=O)ncn2c1=O`, the viability, T/C (compound 1 µM) was 96.1% [middle of 10 runs]; the viability, T/C (compound 3.16 µM) was 90.9% [middle of 10 runs]; the viability, T/C (compound 10 µM) was 79.1% [middle of 10 runs]; the viability, T/C (compound 31.6 µM) was 69.1% [middle of 10 runs]; the viability, T/C (compound 100 µM) is 57.1% [middle of 10 runs]. Besides, the pIC50 (compound alone, run of 12/02/2019) is below 4.00.
